Experimental data taken from publication PMC5218480 (PLoS ONE, 2017).

System: MV-4-11 cells
Experiment: Gene expression microarray analysis (Affymetrix PrimeView) and GSEA
Format: cell-based, human
Settings: gene VPS36; ACY-1035 1 mM; LIST F

SMILES: Nc1ccc(-c2cccs2)cc1NC(=O)c1ccc2c(c1)cc(C1CC1)n2CCN1CCOCC1 [ACY-1035]
- RFU, VPS36 (ProbeSet 11739960_a_at): 54.57 RFU
